Results from patent publication US20240246968A1, “SMALL MOLECULE INHIBITORS OF KRAS G12C MUTANT” (Merck Sharp & Dohme LLC, priority 2021, published 2024).

Key:
[1] = target: Gppcp-bound recombinant K-Ras4B G12C mutant protein (amino acids 1-169, C51S/C80L/C118S) (Homo sapiens, UniProt P01116, C118S/C51S/C80L/G12C); assay: KRASG12C binding assay (LC-MS, compound binding rate); settings: test compound final concentration 0.5 μM, 25° C., 1 hour
Method in brief: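 Gppcp-bound K-Ras4B G12C (1-169; C51S/C80L/C118S), 50 nM in TBS with 0.1 mM TCEP, 0.25 mM MgCl2, 50 μM Gppcp, exposed to compound at 0.5 μM final for 1 h at 25 °C. Quenched with formic acid and analysed by intact-protein ESI LC-MS. Binding rate is the mono-adduct signal over total KRAS signal; graded A (≥80%) to E (<20%).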

[2] = target: T1, interaction between recombinant K-Ras4B G12C mutant protein and cRAF RAS-binding domain (cRAF-RBD) (Homo sapiens, UniProt P01116, G12C); assay: Inhibitory activity on interaction between KRAS G12C and cRAF (Alpha technology); format: biochemical; settings: GMPPNP-bound KRAS G12C incubated with compound at 25° C. for 1 hour, then cRAF-RBD; Alpha signal
T1 construct: made in house; host or cells: E. coli
Method in brief: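 GMPPNP-loaded His-tagged KRAS G12C (aa 1-169, E. coli) preincubated with compound 1 h at 25° C in Tris pH 7.5, 100 mM NaCl, 1 mM MgCl2, TCEP, 0.1% Tween 20; cRAF-RBD (aa 50-132) added, 1.5 h RT, Alpha signal read. DMSO = 0%, GDP-bound KRAS = 100% inhibition; IC50 from dose titration fit.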

[3] = system: MIA PaCa-2 cells; assay: Growth inhibition activity on KRAS-G12C mutant cell line (MIA PaCa-2), CellTiter-Glo 3D; format: cell-based, human; settings: MIA PaCa-2, 3-day culture with compound
Method in brief: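 Cells in RPMI1640 with 10% FBS were seeded in U-bottom plates and cultured 1 day at 37 °C, 5% CO2, then exposed to compound (0.2% DMSO final) for 3 more days. Viability read by CellTiter-Glo 3D luminescence; IC50 from growth inhibition relative to untreated wells.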

Compound	IC50 [2]	IC50 [3]	IC50 ([3]; Homo sapiens, MIA PaCa-2, 72 h)	binding rate [1]
CO[C@H](C)c1nc2c(Cl)c(-c3cccn4c(C(=O)c5cc(F)c(NC(=O)/C=C/CN[C@H]6CC[C@H](OC)CC6)c(F)c5)ccc34)c(C)cc2n1C (single isomer, unassigned) [Example 47]	16 nM	75 nM	–	A (A binding rate of 80% or more is rated “A”)
Cc1nc2cc(-c3cccn4c(C(=O)c5cc(F)c(NC(=O)/C=C/CN[C@H]6CC[C@H](F)CC6)c(F)c5)ccc34)c(C(F)(F)F)cc2n1C [Example 80, (E)-N-(4-(8-(1,2-dimethyl-6-(trifluoromethyl)-1H-benzo[d]imidazol-5-yl)indolizine-3-carbonyl)-2,6-difluorophenyl)-4-(((1r,4r)-4-fluorocyclohexyl)amino)but-2-enamide]	59 nM	–	85 nM	A (A binding rate of 80% or more is rated “A”)
COc1cc(N2CCCC2=O)cc(Cl)c1-c1cccn2c(C(=O)c3cc(F)c(NC(=O)/C=C/CNC(C)(C)C)c(F)c3)ccc12 [Example 21, (E)-4-(tert-butylamino)-N-(4-(8-(2-chloro-6-methoxy-4-(2-oxopyrrolidin-1-yl)phenyl)indolizine-3-carbonyl)-2,6-difluorophenyl)but-2-enamide]	97 nM	–	180 nM	A (A binding rate of 80% or more is rated “A”)
CO[C@H]1CC[C@H](NC/C=C/C(=O)Nc2c(F)cc(C(=O)c3c(C)nc4c(-c5cc6nc(C)n(C)c6cc5C(F)(F)F)cccn34)cc2F)CC1 [Example 51, (E)-N-(4-(8-(1,2-dimethyl-6-(trifluoromethyl)-1H-benzo[d]imidazol-5-yl)-2-methylimidazo[1,2-a]pyridine-3-carbonyl)-2,6-difluorophenyl)-4-(((1r,4r)-4-methoxycyclohexyl)amino)but-2-enamide]	57 nM	–	120 nM	A (A binding rate of 80% or more is rated “A”)
CO[C@H]1C[C@H](NC/C=C/C(=O)Nc2c(F)cc(C(=O)c3ccc4c(-c5cc6nc(C)n(C)c6cc5C(F)(F)F)cccn34)cc2F)C1 [Example 54, (E)-N-(4-(8-(1,2-dimethyl-6-(trifluoromethyl)-1H-benzo[d]imidazol-5-yl)indolizine-3-carbonyl)-2,6-difluorophenyl)-4-(((1r,3r)-3-methoxycyclobutyl)amino)but-2-enamide]	67 nM	–	130 nM	A (A binding rate of 80% or more is rated “A”)
CCc1nc2cc(-c3cccn4c(C(=O)c5cc(F)c(NC(=O)/C=C/CN[C@H]6CC[C@H](OC)CC6)c(F)c5)ccc34)c(C(F)(F)F)cc2n1C [Example 3, (E)-N-(4-(8-(2-ethyl-1-methyl-6-(trifluoromethyl)-1H-benzo[d]imidazol-5-yl)indolizine-3-carbonyl)-2,6-difluorophenyl)-4-(((1r,4r)-4-methoxycyclohexyl)amino)but-2-enamide]	72 nM	–	52 nM	A (A binding rate of 80% or more is rated “A”)
Cc1nc2cc(-c3cccn4c(C(=O)c5cc(F)c(NC(=O)/C=C/CNC6CCN(C)C(=O)C6)c(F)c5)ccc34)c(C(F)(F)F)cc2n1C (stereo not drawn) [Example 72, (E)-N-(4-(8-(1,2-dimethyl-6-(trifluoromethyl)-1H-benzo[d]imidazol-5-yl)indolizine-3-carbonyl)-2,6-difluorophenyl)-4-((1-methyl-2-oxopiperidin-4-yl)amino)but-2-enamide]	89 nM	–	100 nM	A (A binding rate of 80% or more is rated “A”)
Cc1nc2cc(-c3cccn4c(C(=O)c5cc(F)c(NC(=O)/C=C/CN[C@H]6CCOC6)c(F)c5)ccc34)c(C(F)(F)F)cc2n1C [Example 92]	80 nM	–	120 nM	A (A binding rate of 80% or more is rated “A”)
CO[C@H]1CC[C@H](NC/C=C/C(=O)Nc2c(F)cc(C(=O)c3ccc4c(-c5c(C(F)(F)F)cc6c(nc(CO)n6C)c5Cl)cccn34)cc2F)CC1 [Example 67, (E)-N-(4-(8-(4-chloro-2-(hydroxymethyl)-1-methyl-6-(trifluoromethyl)-1H-benzo[d]imidazol-5-yl)indolizine-3-carbonyl)-2,6-difluorophenyl)-4-(((1r,4r)-4-methoxycyclohexyl)amino)but-2-enamide]	38 nM	–	51 nM	A (A binding rate of 80% or more is rated “A”)
CCc1cc2c(nc(C)n2C)c(Cl)c1-c1cccn2c(C(=O)c3cc(F)c(NC(=O)/C=C/CNC(C)(C)C)c(F)c3)ccc12 [Example 16, (E)-4-(tert-butylamino)-N-(4-(8-(4-chloro-6-ethyl-1,2-dimethyl-1H-benzo[d]imidazol-5-yl)indolizine-3-carbonyl)-2,6-difluorophenyl)but-2-enamide]	64 nM	–	48 nM	A (A binding rate of 80% or more is rated “A”)
CO[C@H]1CC[C@H](NC/C=C/C(=O)Nc2c(F)cc(C(=O)c3ccc4c(-c5cc6ncn(C)c6cc5O)cccn34)cc2F)CC1 [Example 23, (E)-N-(2,6-difluoro-4-(8-(6-hydroxy-1-methyl-1H-benzo[d]imidazol-5-yl)indolizine-3-carbonyl)phenyl)-4-(((1r,4r)-4-methoxycyclohexyl)amino)but-2-enamide]	23 nM	–	520 nM	A (A binding rate of 80% or more is rated “A”)
COCC(C)(C)NC/C=C/C(=O)Nc1c(F)cc(C(=O)c2ccc3c(-c4cc5ncn(C)c5cc4C(F)(F)F)cccn23)cc1F [Example 8]	89 nM	–	130 nM	A (A binding rate of 80% or more is rated “A”)
COCCn1c(C)nc2c(F)c(-c3cccn4c(C(=O)c5cc(F)c(NC(=O)/C=C/CNC6(C)CC6)c(F)c5)ccc34)c(OC)cc21 [Example 113, (E)-N-(2,6-difluoro-4-(8-(4-fluoro-6-methoxy-1-(2-methoxyethyl)-2-methyl-1H-benzo[d]imidazol-5-yl)indolizine-3-carbonyl)phenyl)-4-((1-methylcyclopropyl)amino)but-2-enamide]	44.9 nM	–	55.9 nM	A (A binding rate of 80% or more is rated “A”)

Now from value to compound, other results behind:

IC50 [2]	IC50 [3]	IC50 ([3]; Homo sapiens, MIA PaCa-2, 72 h)	Compound	binding rate [1]
46 nM	32 nM	–	Cc1cc2c(ncn2C)c(Cl)c1-c1cccn2c(C(=O)c3cc(F)c(NC(=O)/C=C/CNC(C)(C)C)c(F)c3)ccc12 (single isomer, unassigned) [Example 13-1, (E)-4-(tert-butylamino)-N-(4-(8-(4-chloro-1,6-dimethyl-1H-benzo[d]imidazol-5-yl)indolizine-3-carbonyl)-2,6-difluorophenyl)but-2-enamide]	A (A binding rate of 80% or more is rated “A”)
320 nM	220 nM	–	Cc1cc2c(ncn2C)c(Cl)c1-c1cccn2c(C(=O)c3cc(F)c(NC(=O)/C=C/CNC(C)(C)C)c(F)c3)ccc12 (single isomer, unassigned) [Example 13-2, (E)-4-(tert-butylamino)-N-(4-(8-(4-chloro-1,6-dimethyl-1H-benzo[d]imidazol-5-yl)indolizine-3-carbonyl)-2,6-difluorophenyl)but-2-enamide]	A (A binding rate of 80% or more is rated “A”)
33 nM	59 nM	–	Cn1cnc2c(Cl)c(-c3cccn4c(C(=O)c5cc(F)c(NC(=O)/C=C/CNC(C)(C)C)c(F)c5)ccc34)c(Cl)cc21 (single isomer, unassigned) [Example 20-2, (E)-4-(tert-butylamino)-N-(4-(8-(4,6-dichloro-1-methyl-1H-benzo[d]imidazol-5-yl)indolizine-3-carbonyl)-2,6-difluorophenyl)but-2-enamide]	A (A binding rate of 80% or more is rated “A”)
200 nM	200 nM	–	Cn1cnc2c(Cl)c(-c3cccn4c(C(=O)c5cc(F)c(NC(=O)/C=C/CNC(C)(C)C)c(F)c5)ccc34)c(Cl)cc21 (single isomer, unassigned) [Example 20-1, (E)-4-(tert-butylamino)-N-(4-(8-(4,6-dichloro-1-methyl-1H-benzo[d]imidazol-5-yl)indolizine-3-carbonyl)-2,6-difluorophenyl)but-2-enamide]	A (A binding rate of 80% or more is rated “A”)
220 nM	230 nM	–	Cc1cc2c(nc(C)n2C)c(Cl)c1-c1cccn2c(C(=O)c3cc(F)c(NC(=O)/C=C/CNC(C)(C)C)c(F)c3)ccc12 (single isomer, unassigned) [Example 18-2, (E)-4-(tert-butylamino)-N-(4-(8-(4-chloro-1,2,6-trimethyl-1H-benzo[d]imidazol-5-yl)indolizine-3-carbonyl)-2,6-difluorophenyl)but-2-enamide]	A (A binding rate of 80% or more is rated “A”)
